Here are results for 23 compounds from patent US20090275583A1, “ANTIVIRAL COMPOUNDS AND USE THEREOF” (Myriad Genetics, Incorporated, priority 2006, published 2009).

Like-named read-outs stand apart in the source and are kept apart here. Bounds are passed on as bounds.

The subject of test [1] is HIV-1NL4-3. Briefly: P4-MAGI assay. The class given is cell-based. The gist of the method:
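Cytotoxicity (TC50, 50% growth inhibition) came from WST-1 in uninfected cells. For antiviral activity, compound at rising concentrations was added immediately after HIV-1NL4-3 inoculation (MOI 1, DEAE-Dextran) of P4 cells, CD4+ HeLa cells expressing β-galactosidase from a minimal HIV-1 LTR upon infection.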

Test [2] has as its system HIV-1 laboratory strain, NL4-3. Briefly: MT-4 cytoprotection assay. The test is classed as cell-based. The procedure:
The HTLV-1 transformed T cell line, MT-4, is highly susceptible to HIV-1 infection. Anti-HIV-1 agents were evaluated in this target cell line by protection from the HIV-induced cytopathic effect. In this assay, viability of both HIV-1 and mock-infected cells was assessed in a […] assay that monitors the ability of metabolically-active cells to reduce the tetrazolium salt WST-1. Cytoprotection by antiviral compounds is indicated by the positive readout of increased WST-1 cleavage.
Briefly, exponentially growing MT-4 cells were mock-infected or batch-infected with the HIV-1 laboratory strain, NL4-3, at a multiplicity of infection of 0.0005. Following a two hour infection, the cells were washed to remove unbound virus and plated in the presence of increasing concentrations of compound. After four days incubation, cytoprotection in the infected cells and compound toxicity in mock-infected cells were analyzed using the WST-1 assay.

Where [3] appears, read: Human immunodeficiency virus 1, 24 h, P4 cells, 24 hour incubation, β-galactosidase expression, read-out: P4-MAGI IC50.
The mark [4] stands for this setting: Human immunodeficiency virus 1, NL43, MT4, 96 h, MT-4 cells, four days incubation, WST-1 readout, read-out: MT4 EC50.
Setting [5] is: Human immunodeficiency virus 1, text statement, less than about 100 nm, read-out: P4-MAGI assay IC50.
[6] abbreviates: Human immunodeficiency virus 1, NL43, less than about 100 nm, read-out: MT-4 assay EC50 (concentration of compound that reduces the virus induced cytopathic effect by 50%).

Consider `C=C(C)[C@@H]1CC[C@]2(C(=O)NCCc3cccc(C(=O)NCC4OC5OC(C)(C)O[C@@H]5[C@@H](O)[C@@H]4O)c3)CC[C@]3(C)C(CCC4[C@@]5(C)CC[C@H](O)C(C)(C)C5CC[C@]43C)C12` (stereo partly drawn) [Example 214], for which the concentration for half-maximal inhibition (IC50) in test [1] (setting [3]) was determined as 200 nM. Besides, the EC50 in test [2] (setting [4]) was found to be 214 nM.
On the same counts, the results for `C=C(C)[C@@H]1CC[C@]2(C(=O)NCCc3cccc(C(=O)NC(Cc4ccc(OCC(=O)O)cc4)C(=O)O)c3)CC[C@]3(C)C(CCC4[C@@]5(C)CC[C@H](O)C(C)(C)C5CC[C@]43C)C12` (stereo partly drawn) [Example 146] are 197 nM and 3300 nM.
On the same counts, the results for `C=C(C)[C@@H]1CC[C@]2(C(=O)NCc3cccc(C(=O)NCc4cccc(-c5nn[nH]n5)c4)c3)CC[C@]3(C)C(CCC4[C@@]5(C)CC[C@H](O)C(C)(C)C5CC[C@]43C)C12` (stereo partly drawn) [Example 21] are 24.8 nM and 180 nM.
On the same counts, the results for `C=C(C)[C@@H]1CC[C@]2(C(=O)NCCc3cccc(C(=O)NCc4ccc(C(=O)N[C@H](C(=O)O)C(C)C)cn4)c3)CC[C@]3(C)C(CCC4[C@@]5(C)CC[C@H](O)C(C)(C)C5CC[C@]43C)C12` (stereo partly drawn) [Example 226] are 11.8 nM and 102 nM.
In the case of `C=C(C)[C@@H]1CC[C@]2(C(=O)NCCc3cccc(C(=O)NCc4ccc(C(=O)NCCN5CCOCC5)cn4)c3)CC[C@]3(C)C(CCC4[C@@]5(C)CC[C@H](O)C(C)(C)C5CC[C@]43C)C12` (stereo partly drawn) [Example 174], the IC50 in test [1] (setting [3]) was 6 nM. Besides, in test [2] (setting [4]), the EC50 was found to be 7 nM.
In the case of `C=C(C)[C@@H]1CC[C@]2(C(=O)NCc3ccc(F)c(C(=O)NCCc4cccc(C(=O)O)c4)c3)CC[C@]3(C)C(CCC4[C@@]5(C)CC[C@H](O)C(C)(C)C5CC[C@]43C)C12` (stereo partly drawn) [Example 105], the IC50 was 62.1 nM in test [1] (setting [3]) and under 100 nM in test [1] (setting [5]). Besides, the EC50 in test [2] (setting [4]) was 8.5 nM; in test [2] (setting [6]), under 100 nM.
In the case of `C=C(C)[C@@H]1CC[C@]2(C(=O)NCc3cccc(C(=O)NCc4ccc(OCCCN5CCOCC5)c(C(=O)OC)c4)c3)CC[C@]3(C)C(CCC4[C@@]5(C)CC[C@H](O)C(C)(C)C5CC[C@]43C)C12` (stereo partly drawn) [Example 123], the IC50 in test [1] (setting [3]) was 18.9 nM; in test [1] (setting [5]), under 100 nM. Also, the EC50 was 13 nM in test [2] (setting [4]) and under 100 nM in test [2] (setting [6]).
As for `C=C(C)[C@@H]1CC[C@]2(C(=O)NCc3cccc(C(=O)NCc4ccc(O)c(C(=O)O)c4)c3)CC[C@]3(C)C(CCC4[C@@]5(C)CC[C@H](O)C(C)(C)C5CC[C@]43C)C12` (stereo partly drawn) [Example 13], the values for the IC50 in test [1] (setting [3]) and in test [1] (setting [5]) were 28 nM and under 100 nM, respectively. Also, in test [2] (setting [4]), the EC50 came to 873 nM.
For the compound `C=C(C)[C@@H]1CC[C@]2(C(=O)NCc3cc(C(=O)NCCc4ccc(C(=O)O)cc4)ccc3F)CC[C@]3(C)C(CCC4[C@@]5(C)CC[C@H](O)C(C)(C)C5CC[C@]43C)C12` (stereo partly drawn) [Example 95], the IC50 in test [1] (setting [3]) was 11.2 nM; in test [1] (setting [5]), under 100 nM. In addition, the EC50 in test [2] (setting [4]) was 1.5 nM; in test [2] (setting [6]) it was under 100 nM.
As for `C=C(C)[C@@H]1CC[C@]2(C(=O)NCCc3cccc(C(=O)NCc4ccc(C(=O)NC(CO)C(=O)O)cc4)c3)CC[C@]3(C)C(CCC4[C@@]5(C)CC[C@H](O)C(C)(C)C5CC[C@]43C)C12` (stereo partly drawn) [Example 185], the 50% inhibitory concentration (IC50) in test [1] (setting [3]) came out at 14 nM. In test [2] (setting [4]), the EC50 was found to be 36 nM.
On the same counts, the results for `C=C(C)[C@@H]1CC[C@]2(C(=O)NCCc3cccc(C(=O)NCc4ccc(C(=O)N5CCN(C(=O)OC(C)(C)C)C(C(=O)OC)C5)cc4)c3)CC[C@]3(C)C(CCC4[C@@]5(C)CC[C@H](O)C(C)(C)C5CC[C@]43C)C12` (stereo partly drawn) [Example 183] are 44 nM and 108 nM.
On to `C=C(C)[C@@H]1CC[C@]2(C(=O)NCCc3cccc(-c4nnc(Cc5ccc(C#N)cc5)o4)c3)CC[C@]3(C)C(CCC4[C@@]5(C)CC[C@H](O)C(C)(C)C5CC[C@]43C)C12` (stereo partly drawn) [Example 216], for which the IC50 in test [1] (setting [3]) amounted to 66.5 nM. Further, the EC50 in test [2] (setting [4]) turned out to be 2700 nM.
With `C=C(C)[C@@H]1CC[C@]2(C(=O)NCc3cccc(C(=O)NCCCCCCC(=O)O)c3)CC[C@]3(C)C(CCC4[C@@]5(C)CC[C@H](O)C(C)(C)C5CC[C@]43C)C12` (stereo partly drawn) [Example 2], the values for the IC50 in test [1] (setting [3]) and in test [1] (setting [5]) were 46.7 nM and under 100 nM, respectively. Further, the EC50 in test [2] (setting [4]) amounted to 940 nM.
Turning to `C=C(C)[C@@H]1CC[C@]2(C(=O)NCCc3cccc(C(=O)NCc4ccc(C(=O)NC(C(=O)O)C(N)C(=O)O)cn4)c3)CC[C@]3(C)C(CCC4[C@@]5(C)CC[C@H](O)C(C)(C)C5CC[C@]43C)C12` (stereo partly drawn) [Example 225], the IC50 in test [1] (setting [3]) worked out at 38.5 nM. The EC50 in test [2] (setting [4]) was determined as 53 nM.
`C=C(C)[C@@H]1CC[C@]2(C(=O)NCc3ccc(F)c(C(=O)NCc4cccc(C(=O)O)c4)c3)CC[C@]3(C)C(CCC4[C@@]5(C)CC[C@H](O)C(C)(C)C5CC[C@]43C)C12` (stereo partly drawn) [Example 109]: the IC50 in test [1] (setting [3]) was found to be 149 nM. Also, the EC50 in test [2] (setting [4]) was 50 nM; in test [2] (setting [6]), under 100 nM.
For the compound `C=C(C)[C@@H]1CC[C@]2(C(=O)NCCc3cccc(C(=O)NCc4ccc(C(=O)N[C@@H](C(=O)OC)[C@H](C)O)cc4)c3)CC[C@]3(C)C(CCC4[C@@]5(C)CC[C@H](O)C(C)(C)C5CC[C@]43C)C12` (stereo partly drawn) [Example 161], in test [1] (setting [3]), the half-inhibitory concentration (IC50) was determined as 15 nM. For the same compound, in test [2] (setting [4]), the EC50 is 15 nM.
On to `C=C(C)[C@@H]1CC[C@]2(C(=O)NCCc3cccc(C(=O)NCc4ccc(C(=O)NCCN5CCC(O)CC5)cc4)c3)CC[C@]3(C)C(CCC4[C@@]5(C)CC[C@H](O)C(C)(C)C5CC[C@]43C)C12` (stereo partly drawn) [Example 173], for which the IC50 in test [1] (setting [3]) stood at 28 nM. For the same compound, in test [2] (setting [4]), the EC50 was 2 nM.
On the same counts, the results for `C=C(C)[C@@H]1CC[C@]2(C(=O)NCCc3cccc(C(=O)NCc4ccccc4OC)c3)CC[C@]3(C)C(CCC4[C@@]5(C)CC[C@H](O)C(C)(C)C5CC[C@]43C)C12` (stereo partly drawn) [Example 200] are 76.3 nM and 759 nM.
As to `C=C(C)[C@@H]1CC[C@]2(C(=O)NCc3cc(C(=O)NCCc4ccc(C(=O)OC)cc4)ccc3F)CC[C@]3(C)C(CCC4[C@@]5(C)CC[C@H](O)C(C)(C)C5CC[C@]43C)C12` (stereo partly drawn) [Example 96], the half-maximal inhibitory concentration (IC50) in test [1] (setting [3]) was 33 nM; in test [1] (setting [5]), under 100 nM. For the same compound, the EC50 in test [2] (setting [4]) is 3.5 nM; in test [2] (setting [6]), under 100 nM.
For `C=C(C)[C@@H]1CC[C@]2(C(=O)NCc3cc(C(=O)NCCc4cccc(C(=O)O)c4)ccc3F)CC[C@]3(C)C(CCC4[C@@]5(C)CC[C@H](O)C(C)(C)C5CC[C@]43C)C12` (stereo partly drawn) [Example 97], the IC50 was 23.7 nM in test [1] (setting [3]) and under 100 nM in test [1] (setting [5]). The values for the EC50 in test [2] (setting [4]) and in test [2] (setting [6]) were 1 nM and under 100 nM, respectively.
Regarding `C=C(C)[C@@H]1CC[C@]2(C(=O)NCCc3cccc(C(=O)NCc4ccc(C(=O)NCCC5CCCN5C)cc4)c3)CC[C@]3(C)C(CCC4[C@@]5(C)CC[C@H](O)C(C)(C)C5CC[C@]43C)C12` (stereo partly drawn) [Example 171], the IC50 in test [1] (setting [3]) is 50 nM. Besides, the EC50 in test [2] (setting [4]) was 11 nM.
As for `C=C(C)[C@@H]1CC[C@]2(C(=O)NCCc3cccc(C(=O)NCc4ccc(C(=O)N[C@@H](CCC(=O)O)C(=O)O)cc4)c3)CC[C@]3(C)C(CCC4[C@@]5(C)CC[C@H](O)C(C)(C)C5CC[C@]43C)C12` (stereo partly drawn) [Example 133], the IC50 in test [1] (setting [3]) was 34 nM; in test [1] (setting [5]), under 100 nM. For the same compound, the EC50 in test [2] (setting [4]) was 84 nM; in test [2] (setting [6]) it was under 100 nM.
As to `C=C(C)[C@@H]1CC[C@]2(C(=O)NCCc3cccc(C(=O)NCCc4ccc(C(=O)O)cc4)c3)CC[C@]3(C)C(CCC4[C@@]5(C)CC[C@H](O)C(C)(C)C5CC[C@]43C)C12` (stereo partly drawn) [Example 68], the results for the IC50 in test [1] (setting [3]) and in test [1] (setting [5]) were 15.2 nM and under 100 nM, respectively. For the same compound, the EC50 in test [2] (setting [4]) was 64 nM; in test [2] (setting [6]), under 100 nM.
